For one compound, X-ray crystal structure results are on record in paper PMC12046209, “Structure, Oligomerization, and Thermal Stability of a Recently Discovered Old Yellow Enzyme” (Proteins, 2025).

SMILES strings stand for the structures.

This assay addresses T1, FOYE (Old Yellow Enzyme from Ferrovum sp. JA12) (Ferrovum sp., UniProt Z9U1E9MGE1).
T1 construct: pET-28a(+), N-terminal 6xHis tag with thrombin site (removal not described; two tag residues visible in crystal); E. coli BL21(DE3) Star pLysS; homotetramer
T1 sequence (Z9U1E9MGE1 20-373): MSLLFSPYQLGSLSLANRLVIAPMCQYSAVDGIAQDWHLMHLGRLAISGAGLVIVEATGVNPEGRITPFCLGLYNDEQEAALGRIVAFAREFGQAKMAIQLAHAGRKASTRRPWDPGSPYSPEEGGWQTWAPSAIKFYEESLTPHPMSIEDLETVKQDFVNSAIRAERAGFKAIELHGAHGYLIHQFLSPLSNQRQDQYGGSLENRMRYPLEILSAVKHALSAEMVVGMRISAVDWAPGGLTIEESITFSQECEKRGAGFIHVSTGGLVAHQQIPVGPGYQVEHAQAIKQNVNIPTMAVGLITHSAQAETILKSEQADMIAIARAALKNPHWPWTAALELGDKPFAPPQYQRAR
In words: X-ray crystal structure. The class given is binding. The settings on record: co-purified cofactor, present in all four protomers; crystals from Morpheus II condition E4, 20°C.

For the compound `Cc1cc2nc3c(=O)[nH]c(=O)nc-3n(C[C@H](O)[C@H](O)[C@H](O)COP(=O)(O)O)c2cc1C` [FMN], the X-ray crystal structure entry is “The electron density for the FMN is clearly visible in all the protomers”.
